From ChEMBL document CHEMBL1201862, “PubChem BioAssay data set” (2004)
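Values below derive from 48-hour exposures of cells grown in 96-well plates, with endpoints linearly interpolated between the two concentrations bracketing the appropriate inhibition level. GI50 marks 50% less growth.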 Activity calls are given as the source filed them. No stated cut-off is given here; in the data, active = GI50 up to about 1.1 µM and inactive = higher. Non-standard residues stand in square brackets, D forms with d. Residues, ends and D or L forms follow the SMILES beside them. β3hI = CC[CH](C)[CH](N)CC(=O)O

Tests used:
Assay in all cases: NCI anticancer screen, dose series, 48 h
HT-29 = test system: HT-29
HCT-116 = test system: HCT-116
NCI-H522 = test system: NCI-H522
EKVX = test system: EKVX
HCT-15 = test system: HCT-15
OVCAR-4 = test system: OVCAR-4
HOP-62 = test system: HOP-62
HCC 2998 = test system: HCC 2998
SK-MEL-28 = test system: SK-MEL-28
SW-620 = test system: SW-620
SNB-19 = test system: SNB-19
SK-MEL-5 = test system: SK-MEL-5
RXF 393 = test system: RXF 393
Malme-3M = test system: Malme-3M
K562 = test system: K562
CCRF-CEM = test system: CCRF-CEM
OVCAR-5 = test system: OVCAR-5
UO-31 = test system: UO-31
MCF7 = test system: MCF7
SK-OV-3 = test system: SK-OV-3

Row | SMILES | GI50 (HT-29) | GI50 (HCT-116) | GI50 (NCI-H522) | GI50 (EKVX) | GI50 (HCT-15) [µM] | GI50 (OVCAR-4) | GI50 (HOP-62) | GI50 (HCC 2998) | GI50 (SK-MEL-28) | GI50 (SW-620) | GI50 (SNB-19) | GI50 (SK-MEL-5) | GI50 (RXF 393) | GI50 (Malme-3M) | GI50 (K562) | GI50 (CCRF-CEM) | GI50 (OVCAR-5) | GI50 (UO-31) | GI50 (MCF7) | GI50 (SK-OV-3)
1 | N/N=C1\C(=O)N(c2ccc(Cl)c(Cl)c2)C(=O)C1C(=O)Nc1ccc(Cl)c(Cl)c1 (stereo not given) | 49.9 µM (inactive) | 75.2 µM (inactive) | 50.9 µM (inactive) | 89.1 µM (inactive) | 50.7 | 80.4 µM (inactive) | 41.4 µM (inactive) | 62.4 µM (inactive) | 31 µM (inactive) | 91.4 µM (inactive) | 28.2 µM (inactive) | 17.5 µM (inactive) | > 100 µM (inactive) | > 100 µM (inactive) | 34.8 µM (inactive) | 34.4 µM (inactive) | 88.7 µM (inactive) | 19.8 µM (inactive) |  | 
2 | Cc1c2cccc-2ccc2c1[nH]c1ccc(Br)cc12 | 13.2 µM (inactive) | 4.85 µM (inactive) | 2.48 µM (inactive) | 1.78 µM (inactive) | 3.62 | 1.96 µM (inactive) | 6.43 µM (inactive) | 15.2 µM (inactive) | 7.03 µM (inactive) | 4.75 µM (inactive) | 7.64 µM (inactive) | 3.9 µM (inactive) |  | 9.86 µM (inactive) | 2.96 µM (inactive) | 3.12 µM (inactive) | 3.94 µM (inactive) | 4.65 µM (inactive) | 4.06 µM (inactive) | 14.7 µM (inactive)
3 | CCCCCCCCCCCC[N+](CCCCCCCCCCCC)=C1SCCS1 | 3.36 µM (inactive) | 2.84 µM (inactive) | 5.82 µM (inactive) | 13.1 µM (inactive) | 10.7 | 3.6 µM (inactive) | 16.7 µM (inactive) | 10.3 µM (inactive) | 11 µM (inactive) | 3.29 µM (inactive) |  | 6.07 µM (inactive) | 3.45 µM (inactive) | 6.64 µM (inactive) |  |  | 12.2 µM (inactive) | 13.4 µM (inactive) |  | 16.6 µM (inactive)
4 | NC(=S)N/N=C1\c2ccccc2CCC1CCC1(O)CCc2ccccc2C1=O (stereo not given) | 19.8 µM (inactive) | 18.7 µM (inactive) |  | 11.4 µM (inactive) | 39.7 | 34 µM (inactive) | 57.4 µM (inactive) |  | 20.7 µM (inactive) | 28 µM (inactive) | 34.8 µM (inactive) | 15 µM (inactive) | 16.2 µM (inactive) | 19.8 µM (inactive) | > 10 µM (inactive) | 22.6 µM (inactive) | 26 µM (inactive) | 12 µM (inactive) | 17.8 µM (inactive) | > 100 µM (inactive)
5 | CCC(C)C(CC(=O)N1CCCC1C(=O)NC(C(=O)NC(C(=O)NCC(=O)NC(CC(N)=O)C(=O)NC(C(=O)NC(C(=O)NC(CCCCN)C(N)=O)C(C)CC)C(C)CC)C(C)C)C(C)CC)NC(=O)C(N)C(C)CC (stereo not drawn) (H-I[β3hI]PIVGNIIK-NH2; configuration not given here) | > 50 µM (inactive) | > 50 µM (inactive) | > 50 µM (inactive) | > 50 µM (inactive) | > 50 | > 50 µM (inactive) | > 50 µM (inactive) |  | > 50 µM (inactive) | > 50 µM (inactive) | > 50 µM (inactive) | > 50 µM (inactive) |  | > 50 µM (inactive) |  | 10.5 µM (inactive) | > 50 µM (inactive) | > 50 µM (inactive) | > 50 µM (inactive) | > 50 µM (inactive)
6 | CC(C)C1CN1CC(O)Cn1ccnc1[N+](=O)[O-] (stereo not given) | > 100 µM (inactive) | > 100 µM (inactive) | > 100 µM (inactive) | > 100 µM (inactive) | > 100 | > 100 µM (inactive) | > 100 µM (inactive) | > 100 µM (inactive) | > 100 µM (inactive) | > 100 µM (inactive) | > 100 µM (inactive) | > 100 µM (inactive) |  | 62.2 µM (inactive) | > 100 µM (inactive) | > 100 µM (inactive) | > 100 µM (inactive) | > 100 µM (inactive) | > 100 µM (inactive) | > 100 µM (inactive)
7 | CC(NC(C#N)CC12CC3CC(CC(C3)C1)C2)c1ccccc1 (stereo not given) | 31.3 µM (inactive) | 34.8 µM (inactive) | > 100 µM (inactive) | > 100 µM (inactive) | 56.8 |  | > 100 µM (inactive) | > 100 µM (inactive) | > 100 µM (inactive) | 54.8 µM (inactive) | > 100 µM (inactive) | > 100 µM (inactive) |  | > 100 µM (inactive) | 23.1 µM (inactive) | 20.7 µM (inactive) | 63.8 µM (inactive) | 77.8 µM (inactive) | 48.9 µM (inactive) | 59.6 µM (inactive)
8 | COC(=O)C1=C(OC(=O)/C=C/c2ccc(Cl)cc2)C(C(=O)OC)[C@@]2(O)[C@@H](C(=O)OC)[C@H](C)C[C@@H]1[C@@H]2C(=O)OC (stereo not given in full) | 26.1 µM (inactive) | 23.8 µM (inactive) | 6.81 µM (inactive) | 22.5 µM (inactive) | 19.3 | 27.1 µM (inactive) | 28.8 µM (inactive) |  | 26.4 µM (inactive) | 28.4 µM (inactive) | 30.8 µM (inactive) | 17.2 µM (inactive) | 27.2 µM (inactive) | 11.3 µM (inactive) | 21.6 µM (inactive) | 13.2 µM (inactive) | 28.4 µM (inactive) | 27 µM (inactive) |  | 24.6 µM (inactive)
9 | C[S+](C)([O-])=Nn1c(=O)n2n(c1=O)[C@H]1CC[C@@H]2C1 | > 100 µM (inactive) |  | > 100 µM (inactive) | > 100 µM (inactive) | > 100 |  | > 100 µM (inactive) |  | > 100 µM (inactive) | > 100 µM (inactive) | > 100 µM (inactive) | > 100 µM (inactive) | > 100 µM (inactive) | > 100 µM (inactive) | > 100 µM (inactive) | > 100 µM (inactive) | > 100 µM (inactive) | > 100 µM (inactive) | > 100 µM (inactive) | > 100 µM (inactive)
10 | Clc1ccc(Cl)c(Nc2ccnc(SCc3ccccc3)n2)c1 | 69.8 µM (inactive) | > 100 µM (inactive) | 84.9 µM (inactive) | 57.9 µM (inactive) | > 100 | > 100 µM (inactive) | > 100 µM (inactive) |  | > 100 µM (inactive) | > 100 µM (inactive) | > 100 µM (inactive) | > 100 µM (inactive) | 20.4 µM (inactive) | > 100 µM (inactive) | > 100 µM (inactive) | > 100 µM (inactive) | > 100 µM (inactive) | > 100 µM (inactive) | > 100 µM (inactive) | > 100 µM (inactive)
11 | COc1cc(C2C(C(=O)O)=C(CO)Oc3cc4c(cc32)OCO4)cc(OC)c1OC (stereo not given) | > 100 µM (inactive) | > 100 µM (inactive) |  | > 100 µM (inactive) | > 100 | > 100 µM (inactive) |  |  | 83.6 µM (inactive) | > 100 µM (inactive) | > 100 µM (inactive) | > 100 µM (inactive) | 93.3 µM (inactive) |  | > 100 µM (inactive) | > 100 µM (inactive) | > 100 µM (inactive) | > 100 µM (inactive) |  | > 100 µM (inactive)
12 | CC12Nc3ccccc3C1=C(c1ccccc1)CC1C(=O)OC(=O)C12 (stereo not given) | > 100 µM (inactive) | > 100 µM (inactive) | > 100 µM (inactive) | > 100 µM (inactive) | > 100 | > 100 µM (inactive) | > 100 µM (inactive) | > 100 µM (inactive) | > 100 µM (inactive) | > 100 µM (inactive) | > 100 µM (inactive) | > 100 µM (inactive) | > 100 µM (inactive) | > 100 µM (inactive) | > 100 µM (inactive) | > 100 µM (inactive) | > 100 µM (inactive) | > 100 µM (inactive) |  | 
13 | COC(=O)c1ccc(N/C=C(/C#N)c2ccsc2)cc1 | 11.1 µM (inactive) | 8.57 µM (inactive) |  | 15.9 µM (inactive) | 50.9 |  | 13.3 µM (inactive) | 18.4 µM (inactive) | 15.6 µM (inactive) | 21.3 µM (inactive) | 12.2 µM (inactive) |  | 11.4 µM (inactive) | 16.8 µM (inactive) | > 100 µM (inactive) | > 100 µM (inactive) | > 100 µM (inactive) | 14.4 µM (inactive) |  | 
14 | COc1ccc(C(=O)/C(Br)=C/C(=O)O)cc1 | 76.7 µM (inactive) |  | 7 µM (inactive) | 37.8 µM (inactive) | 23.5 | 32.7 µM (inactive) | 17.4 µM (inactive) | 19.2 µM (inactive) | 23.3 µM (inactive) |  | 77.6 µM (inactive) | 20.7 µM (inactive) |  | 14.8 µM (inactive) | 29.5 µM (inactive) |  | 42.1 µM (inactive) | 37.2 µM (inactive) | 9.75 µM (inactive) | 69.8 µM (inactive)
15 | CC(=O)C(C(=O)C(=O)Nc1cc(Cl)c(Cl)cc1Cl)c1csc(N)n1 (stereo not given) | > 100 µM (inactive) | > 100 µM (inactive) | > 100 µM (inactive) | > 100 µM (inactive) | > 100 | > 100 µM (inactive) | > 100 µM (inactive) | > 100 µM (inactive) | > 100 µM (inactive) | > 100 µM (inactive) | > 100 µM (inactive) | > 100 µM (inactive) | > 100 µM (inactive) |  | > 100 µM (inactive) | > 100 µM (inactive) | > 100 µM (inactive) | > 100 µM (inactive) |  | > 100 µM (inactive)
16 | COc1cc2c(oc(=O)c3c4occc4cc(OC)c23)c2cccc(OCc3ccccc3)c12 | > 100 µM (inactive) | > 100 µM (inactive) | > 100 µM (inactive) | > 100 µM (inactive) | > 100 | 44.4 µM (inactive) | > 100 µM (inactive) | > 100 µM (inactive) | 49.4 µM (inactive) | > 100 µM (inactive) | > 100 µM (inactive) | > 100 µM (inactive) | 78.3 µM (inactive) | 35.6 µM (inactive) | > 100 µM (inactive) | > 100 µM (inactive) | > 100 µM (inactive) | > 100 µM (inactive) |  | > 100 µM (inactive)
